According to patent EP2264011A1, “Heteroarylamidines and their use as fungicides” (Bayer CropScience AG, priority 2009, dated 2010):

Assays:
DIGSA = assay: Herbicidal action, test type PE; assay type: in vivo; conditions: Test-Typ PE, 320 G/HA
Excerpt: (§1) Die herbizide Wirkung der Verbindungen der allgemeinen Formel (I) wird in den nachfolgenden Tabellen näher erläutert.

VERPE [1] = assay: Herbicidal action, test type PE; assay type: in vivo; conditions: Test-Typ PE, 320 G/HA
Excerpt: as §1

ECHCG = assay: Herbicidal action, test type PE; assay type: in vivo; conditions: Test-Typ PE, 320 G/HA
Excerpt: as §1

SETVI [2] = assay: Herbicidal action, test type PE; assay type: in vivo; conditions: Test-Typ PE, 320 G/HA
Excerpt: as §1

AMARE [3] = assay: Herbicidal action, test type PE; assay type: in vivo; conditions: Test-Typ PE, 320 G/HA
Excerpt: as §1

Botrytis cinerea = assay: Botrytis test (cucumber) / protective; assay type: in vivo; conditions: 500ppm active ingredient, evaluated 5-6 days after inoculation
Protocol: (§2) Zur Herstellung einer zweckmäßigen Wirkstoffzubereitung vermischt man 1 Gewichtsteil Wirkstoff mit den angegebenen Mengen Lösungsmittel und Emulgator und verdünnt das Konzentrat mit Wasser auf die gewünschte Konzentration.
Zur Prüfung auf protektive Wirksamkeit bespritzt man junge Gurkenpflanzen mit der Wirkstoffzubereitung in der angegebenen Aufwandmenge. 1 Tag nach der Behandlung werden die Pflanzen mit einer Sporensuspension von Botrytis cinerea inokuliert und stehen dann 48h bei 100% rel. Feuchte und 22°C. Anschließend stehen die Pflanzen bei 96% rel. Luftfeuchtigkeit und einer Temperatur von 14°C.
5-6 Tage nach der Inokulation erfolgt die Auswertung. Dabei bedeutet 0 % ein Wirkungsgrad, der demjenigen der Kontrolle entspricht, während ein Wirkungsgrad von 100 % bedeutet, dass kein Befall beobachtet wird.

[4] = tested on: Blumeria graminis f·sp. hordei; assay: Blumeria graminis test (barley) / protective; assay type: in vivo; conditions: 1000 ppm active ingredient, evaluated 7 days after inoculation
Excerpt: as §2
Zur Prüfung auf protektive Wirksamkeit besprüht man junge Pflanzen mit der Wirkstoffzubereitung in der angegebenen Aufwandmenge.
Nach Antrocknen des Spritzbelages werden die Pflanzen mit Sporen von Blumeria graminis f·sp. hordei bestäubt.
Die Pflanzen werden in einem Gewächshaus bei einer Temperatur von ca. 18°C und einer relativen Luftfeuchtigkeit von ca. 80 % aufgestellt, um die Entwicklung von Mehltaupusteln zu begünstigen.
7 Tage nach der Inokulation erfolgt die Auswertung. Dabei bedeutet 0 % ein Wirkungsgrad, der demjenigen der Kontrolle entspricht, während ein Wirkungsgrad von 100 % bedeutet, dass kein Befall beobachtet wird.

Venturia inaequalis = assay: Venturia test (apple) / protective; assay type: in vivo; conditions: 100ppm active ingredient, evaluated 10 days after inoculation
Excerpt: as §2
Zur Prüfung auf protektive Wirksamkeit werden junge Pflanzen mit der Wirkstoffzubereitung in der angegebenen Aufwandmenge besprüht. Nach Antrocknen des Spritzbelages werden die Pflanzen mit einer wäßrigen Konidiensuspension des Apfelschorferregers Venturia inaequalis inokuliert und verbleiben dann 1 Tag bei ca. 20°C und 100% relativer Luftfeuchtigkeit in einer Inkubations-kabine.
Die Pflanzen werden dann im Gewächshaus bei ca. 21°C und einer relativen Luftfeuchtigkeit von ca. 90% aufgestellt.
10 Tage nach der Inokulation erfolgt die Auswertung. Dabei bedeutet 0% ein Wirkungsgrad, der demjenigen der Kontrolle entspricht, während ein Wirkungsgrad von 100% bedeutet, daß kein Befall beobachtet wird.

VERPE [5] = assay: Herbicidal action, test type PO; assay type: in vivo; conditions: TEST-TYP PO, 80 G/HA
Excerpt: as §1

PHBPU = assay: Herbicidal action, test type PO; assay type: in vivo; conditions: TEST-TYP PO, 80 G/HA
Excerpt: as §1

Myzus persicae [6] = assay: Myzus test (MYZUPE spray treatment); assay type: in vivo; conditions: 500 g/ha; spray on Chinese cabbage leaf discs (Brassica pekinensis); 100 % = all aphids killed
Excerpt: (§3) Zur Herstellung einer zweckmäßigen Wirkstoffzubereitung vermischt man 1 Gewichtsteil Wirkstoff mit den angegebenen Mengen Lösungsmittel und Emulgator und verdünnt das Konzentrat mit emulgatorhaltigem Wasser auf die gewünschte Konzentration.
Chinakohlblattscheiben (Brassica pekinensis), die von allen Stadien der Grünen Pfirsichblattlaus (Myzus persicae) befallen sind, werden mit einer Wirkstoffzubereitung der gewünschten Konzentration gespritzt.
(§4) Nach der gewünschten Zeit wird die Wirkung in % bestimmt. Dabei bedeutet 100 %, dass alle Blattläuse abgetötet wurden; 0 % bedeutet, dass keine Blattläuse abgetötet wurden.

Myzus persicae [7] = assay: Myzus test; oral (MYZUPE); assay type: in vivo; conditions: 100 g/ha; oral uptake by sucking; 100 % = all aphids killed
Excerpt: Zur Herstellung einer zweckmäßigen Wirkstoffzubereitung vermischt man 1 Gewichtsteil Wirkstoff mit den angegebenen Mengen Lösungsmittel und verdünnt das Konzentrat mit Wasser auf die gewünschte Konzentration.
Gefäße werden mit allen Stadien der Grünen Pfirsichblattlaus (Myzus persicae) besetzt, durch saugen an der Wirkstoffzubereitung der gewünschten Konzentration wird behandelt.
as §4

Meloidogyne incognita = assay: Meloidogyne test (MELGIN); assay type: in vivo; conditions: 20 ppm; sand with lettuce seeds; 100 % = no galls
Excerpt: as §2
Gefäße werden mit Sand, Wirkstofflösung, Meloidogyne incognita-Ei-Larvensuspension und Salatsamen gefüllt. Die Salatsamen keimen und die Pflänzchen entwickeln sich. An den Wurzeln entwickeln sich die Gallen.
Nach der gewünschten Zeit wird die nematizide Wirkung an Hand der Gallenbildung in % bestimmt. Dabei bedeutet 100 %, dass keine Gallen gefunden wurden; 0 % bedeutet, dass die Zahl der Gallen an den behandelten Pflanzen der der unbehandelten Kontrolle entspricht.

VIOTR = assay: Herbicidal action, test type PE; assay type: in vivo; conditions: Test-Typ PE, 320 G/HA
Excerpt: as §1

Tetranychus urticae = assay: Tetranychus test, OP-resistant (TETRUR spray treatment); assay type: in vivo; conditions: 500 g/ha; spray on bean leaf discs (Phaseolus vulgaris); 100 % = all spider mites killed
Excerpt: as §3
Bohnenblattscheiben (Phaseolus vulgaris), die von allen Stadien der Gemeinen Spinnmilbe (Tetranychus urticae) befallen sind, werden mit einer Wirkstoffzubereitung der gewünschten Konzentration gespritzt.
Nach der gewünschten Zeit wird die Wirkung in % bestimmt. Dabei bedeutet 100 %, dass alle Spinnmilben abgetötet wurden; 0 % bedeutet, dass keine Spinnmilben abgetötet wurden.

SETVI [8] = assay: Herbicidal action, test type PO; assay type: in vivo; conditions: TEST-TYP PO, 80 G/HA
Excerpt: as §1

AMARE [9] = assay: Herbicidal action, test type PO; assay type: in vivo; conditions: TEST-TYP PO, 80 G/HA
Excerpt: as §1

physchem = conditions: pH 2.3
Excerpt: Die Bestimmung erfolgt im sauren Bereich bei pH 2.3 mit 0,1% wässriger Phosphorsäure und Acetonitril als Eluenten linearer Gradient von 10% Acetonitril bis 95% Acetonitril.

CCN(C)C=Nc1cnc(-c2ccc(Cl)c(C(F)(F)F)c2)cc1C [Beispiel 15]
herbizide Wirkung DIGSA (DIGSA): 100 | herbizide Wirkung VERPE (VERPE [1]): 90 | herbizide Wirkung ECHCG (ECHCG): 90 | herbizide Wirkung SETVI (SETVI [2]): 100 | herbizide Wirkung AMARE (AMARE [3]): 90 | Wirkungsgrad (Botrytis cinerea): ≥ 70% | Wirkungsgrad [4]: ≥ 70% | Wirkungsgrad (Venturia inaequalis): ≥ 70% | herbizide Wirkung VERPE (VERPE [5]): 80 | herbizide Wirkung PHBPU (PHBPU): 90

CCN(C)C=Nc1cnc(-c2cccnc2)cc1C [Beispiel 95]
Wirkung (Myzus persicae [6]): ≥ 80% | Wirkung (Myzus persicae [7]): ≥ 80%

Cc1cc(-c2ccc(C(F)(F)F)cc2)ncc1N=CN(C)C [Beispiel 100]
nematizide Wirkung an Hand der Gallenbildung (Meloidogyne incognita): ≥ 80%

Cc1cc(-c2ccc(C(F)(F)F)c(Cl)c2)ncc1N=CN(C)C [Beispiel 105]
herbizide Wirkung VIOTR (VIOTR): 90 | herbizide Wirkung VERPE (VERPE [1]): 100 | herbizide Wirkung ECHCG (ECHCG): 80 | herbizide Wirkung SETVI (SETVI [2]): 80 | Wirkung (Tetranychus urticae): ≥ 80% | nematizide Wirkung an Hand der Gallenbildung (Meloidogyne incognita): ≥ 80% | herbizide Wirkung VERPE (VERPE [5]): 80 | herbizide Wirkung SETVI (SETVI [8]): 80 | herbizide Wirkung AMARE (AMARE [9]): 80

CCN(C=Nc1cnc(-c2ccc(Cl)c(C(F)(F)F)c2)cc1C)CC [Beispiel 119]
herbizide Wirkung SETVI (SETVI [2]): 100 | herbizide Wirkung AMARE (AMARE [3]): 80 | chromatographic logP (physchem): 1.92

Cc1cc(Cl)ncc1N=CN(C)C [Beispiel 131]
Wirkungsgrad (Botrytis cinerea): ≥ 70%

CCN(C)C=Nc1cnc(-c2ccc(C(C)(C)C)cc2)cc1C [Beispiel 142]
Wirkungsgrad (Botrytis cinerea): ≥ 70% | Wirkungsgrad [4]: ≥ 70%

Cc1cc(-c2ccc(C(C)(C)C)cc2)ncc1N=CN1CCCCC1 [Beispiel 150]
Wirkungsgrad (Botrytis cinerea): ≥ 70% | Wirkungsgrad (Venturia inaequalis): ≥ 70%

Cc1cc(-c2cc(C(F)(F)F)cc(C(F)(F)F)c2)ncc1N=CN(C)C [Beispiel 172]
Wirkung (Myzus persicae [7]): ≥ 80%

CCN(C)C=Nc1cnc(-c2ccc(C3CCCCC3)cc2)cc1C [Beispiel 209]
Wirkungsgrad (Botrytis cinerea): ≥ 70% | Wirkungsgrad (Venturia inaequalis): ≥ 70%

Cc1cc(-c2ccc(F)nc2)ncc1N=CN(C)C [Beispiel 234]
Wirkung (Myzus persicae [6]): ≥ 80% | Wirkung (Myzus persicae [7]): ≥ 80% | nematizide Wirkung an Hand der Gallenbildung (Meloidogyne incognita): ≥ 80%

CCN(C)C=Nc1cnc(-c2ccc(OC(F)(F)F)c(F)c2)cc1C [Beispiel 247]
Wirkung (Myzus persicae [7]): ≥ 80% | nematizide Wirkung an Hand der Gallenbildung (Meloidogyne incognita): ≥ 80%

Cc1cc(-c2cccnc2)ncc1N=CN(C)C [Beispiel 270]
Wirkung (Myzus persicae [6]): ≥ 80% | Wirkung (Myzus persicae [7]): ≥ 80%

Cc1cc(-c2ccc(OC(F)(F)F)cc2)ncc1N=CN(C)C [compound 113]
chromatographic logP (physchem): 1.25

CCN(C)C=Nc1cnc(-c2ccc(OC(F)(F)F)cc2)cc1C [compound 114]
chromatographic logP (physchem): 1.34

Cc1cc(-c2ccc([Si](C)(C)C)cc2)ncc1N=CN(C)C [compound 115]
chromatographic logP (physchem): 1.51

CCN(C)C=Nc1cnc(-c2ccc([Si](C)(C)C)cc2)cc1C [compound 116]
chromatographic logP (physchem): 1.6

Cc1cc(-c2ccc(Cl)c(C(F)(F)F)c2)ncc1N=CN1CCCC1 [compound 117]
chromatographic logP (physchem): 1.75

CCCCN(C=Nc1cnc(-c2ccc(Cl)c(C(F)(F)F)c2)cc1C)CCCC [compound 118]
chromatographic logP (physchem): 2.49

Cc1cc(-c2ccc(Cl)c(C(F)(F)F)c2)ncc1N=CN(C(C)C)C(C)C [compound 120]
chromatographic logP (physchem): 2.23

Cc1cc(-c2ccc(F)c(C(F)(F)F)c2)ncc1N=CN1CCCC1 [compound 121]
chromatographic logP (physchem): 1.85

Cc1cc(-c2ccc(F)c(C(F)(F)F)c2)ncc1N=CN(C(C)C)C(C)C [compound 122]
chromatographic logP (physchem): 1.9

CC(=Nc1cnc(-c2ccc(Cl)c(C(F)(F)F)c2)cc1C)N(C)C [compound 123]
chromatographic logP (physchem): 1.03

CC(=Nc1cnc(-c2ccc(Cl)c(C(F)(F)F)c2)cc1C)N1CCCCC1 [compound 124]
chromatographic logP (physchem): 0.94
